Activity calls are given as the source filed them. How the calls were made is not given here.
Tested on: CCRIS mutagenicity, Ames/micronucleus/aberration tests
Assay: CCRIS mutagenicity studies
[1] = Test System: AMES SALMONELLA TYPHIMURIUM, Strain/Indicator: TA98, Metabolic Activation: NONE, Method: STANDARD PLATE
[2] = Test System: AMES SALMONELLA TYPHIMURIUM, Strain/Indicator: TA98, Metabolic Activation: RAT, LIVER, S-9, AROCLOR 1254, Method: STANDARD PLATE
[3] = Test System: AMES SALMONELLA TYPHIMURIUM, Strain/Indicator: TA100, Metabolic Activation: NONE, Method: STANDARD PLATE
[4] = Test System: AMES SALMONELLA TYPHIMURIUM, Strain/Indicator: TA100, Metabolic Activation: RAT, LIVER, S-9, AROCLOR 1254, Method: STANDARD PLATE
[5] = Test System: AMES SALMONELLA TYPHIMURIUM, Strain/Indicator: TA1535, Metabolic Activation: NONE, Method: STANDARD PLATE
[6] = Test System: AMES SALMONELLA TYPHIMURIUM, Strain/Indicator: TA1535, Metabolic Activation: RAT, LIVER, S-9, AROCLOR 1254, Method: STANDARD PLATE
[7] = Test System: AMES SALMONELLA TYPHIMURIUM, Strain/Indicator: TA98, Metabolic Activation: NONE, Method: PREINCUBATION
[8] = Test System: AMES SALMONELLA TYPHIMURIUM, Strain/Indicator: TA100, Metabolic Activation: NONE, Method: PREINCUBATION

In the case of `ClCCCCl`, the mutagenic call (Test System: AMES SALMONELLA TYPHIMURIUM, Strain/Indicator: GSTT1, Metabolic Activation: RAT, LIVER, S-9, AROCLOR 1254, Method: STANDARD PLATE) is reported as “inactive; negative”, the mutagenic call (Test System: AMES SALMONELLA TYPHIMURIUM, Strain/Indicator: RSJ100, Metabolic Activation: NONE, Method: STANDARD PLATE) is reported as “inactive; negative” and the mutagenic call [1] is reported as “inactive; negative”. The mutagenic call [2] was “inactive; negative”, the mutagenic call [3] was “inactive; negative” and the mutagenic call [4] was “inactive; negative”. For the same compound, the mutagenic call (Test System: AMES SALMONELLA TYPHIMURIUM, Strain/Indicator: TA104, Metabolic Activation: NONE, Method: STANDARD PLATE) was “inactive; negative”, the mutagenic call (Test System: AMES SALMONELLA TYPHIMURIUM, Strain/Indicator: TA104, Metabolic Activation: RAT, LIVER, S-9, AROCLOR 1254, Method: STANDARD PLATE) was “inactive; negative” and the mutagenic call [5] was “inactive; negative”. The mutagenic call [6] was “inactive; negative”.
With `C=C(C)C(=O)OCCCCC` the mutagenic call [1] was “inactive; negative”, the mutagenic call [2] was “inactive; negative” and the mutagenic call (Test System: AMES SALMONELLA TYPHIMURIUM, Strain/Indicator: TA98, Metabolic Activation: RAT, LIVER, S-9, SODIUM PHENOBARBITAL, Method: STANDARD PLATE) was “inactive; negative”. The mutagenic call [3] was “inactive; negative”, the mutagenic call [4] was “inactive; negative” and the mutagenic call (Test System: AMES SALMONELLA TYPHIMURIUM, Strain/Indicator: TA100, Metabolic Activation: RAT, LIVER, S-9, SODIUM PHENOBARBITAL, Method: STANDARD PLATE) was “inactive; negative”. For the same compound, the mutagenic call [5] was “inactive; negative”, the mutagenic call [6] was “inactive; negative” and the mutagenic call (Test System: AMES SALMONELLA TYPHIMURIUM, Strain/Indicator: TA1535, Metabolic Activation: RAT, LIVER, S-9, SODIUM PHENOBARBITAL, Method: STANDARD PLATE) was “inactive; negative”. For the same compound, the mutagenic call (Test System: AMES SALMONELLA TYPHIMURIUM, Strain/Indicator: TA1537, Metabolic Activation: NONE, Method: STANDARD PLATE) was “inactive; negative”, the mutagenic call (Test System: AMES SALMONELLA TYPHIMURIUM, Strain/Indicator: TA1537, Metabolic Activation: RAT, LIVER, S-9, AROCLOR 1254, Method: STANDARD PLATE) was “inactive; negative” and the mutagenic call (Test System: AMES SALMONELLA TYPHIMURIUM, Strain/Indicator: TA1537, Metabolic Activation: RAT, LIVER, S-9, SODIUM PHENOBARBITAL, Method: STANDARD PLATE) was “inactive; negative”. The mutagenic call (Test System: AMES SALMONELLA TYPHIMURIUM, Strain/Indicator: TA1538, Metabolic Activation: NONE, Method: STANDARD PLATE) was “inactive; negative”, the mutagenic call (Test System: AMES SALMONELLA TYPHIMURIUM, Strain/Indicator: TA1538, Metabolic Activation: RAT, LIVER, S-9, AROCLOR 1254, Method: STANDARD PLATE) was “inactive; negative” and the mutagenic call (Test System: AMES SALMONELLA TYPHIMURIUM, Strain/Indicator: TA1538, Metabolic Activation: RAT, LIVER, S-9, SODIUM PHENOBARBITAL, Method: STANDARD PLATE) was “inactive; negative”.
`O=c1cc2ccc3cccc4ccc([nH]1)c2c34` was tested, and the mutagenic call [1] was “active; positive”, the mutagenic call [2] was “active; positive” and the mutagenic call [3] was “inactive; negative”. For the same compound, the mutagenic call [4] was “active; positive”.
With `CC(C)(Br)C(=O)O` the mutagenic call (End Point: IN VITRO CHROMOSOMAL ABERRATIONS, Test System: CHL CELLS, Metabolic Activation: NONE) was “active; positive (structural changes)” and the mutagenic call (End Point: IN VITRO CHROMOSOMAL ABERRATIONS, Test System: CHL CELLS, Metabolic Activation: RAT, LIVER, S-9, SODIUM PHENOBARBITAL AND 5,6-BENZOFLAVONE) was “active; positive (structural changes)”.
With `CCN(CC)CCCC(C)Nc1cc(OC)cc2cccnc12` (stereo not given) the mutagenic call (Test System: AMES SALMONELLA TYPHIMURIUM, Strain/Indicator: TA97, Metabolic Activation: NONE, Method: PREINCUBATION) was “inactive; negative”, the mutagenic call (Test System: AMES SALMONELLA TYPHIMURIUM, Strain/Indicator: TA97, Metabolic Activation: RAT, LIVER, S-9, PHENOBARBITAL AND BETA-NAPHTHOFLAVONE, Method: PREINCUBATION) was “inactive; negative” and the mutagenic call [7] was “active; positive”. The mutagenic call (Test System: AMES SALMONELLA TYPHIMURIUM, Strain/Indicator: TA98, Metabolic Activation: RAT, LIVER, S-9, PHENOBARBITAL AND BETA-NAPHTHOFLAVONE, Method: PREINCUBATION) was “inactive; negative”, the mutagenic call [8] was “inactive; negative” and the mutagenic call (Test System: AMES SALMONELLA TYPHIMURIUM, Strain/Indicator: TA100, Metabolic Activation: RAT, LIVER, S-9, PHENOBARBITAL AND BETA-NAPHTHOFLAVONE, Method: PREINCUBATION) was “inactive; negative”. The mutagenic call (Test System: AMES SALMONELLA TYPHIMURIUM, Strain/Indicator: TA102, Metabolic Activation: NONE, Method: PREINCUBATION) was “inactive; negative”, the mutagenic call (Test System: AMES SALMONELLA TYPHIMURIUM, Strain/Indicator: TA102, Metabolic Activation: RAT, LIVER, S-9, PHENOBARBITAL AND BETA-NAPHTHOFLAVONE, Method: PREINCUBATION) was “inactive; negative” and the mutagenic call (Test System: E.COLI, Strain/Indicator: WP2UVRA/PKM101, Metabolic Activation: NONE, Method: PREINCUBATION) was “inactive; negative”. The mutagenic call (Test System: E.COLI, Strain/Indicator: WP2UVRA/PKM101, Metabolic Activation: RAT LIVER S-9, PHENOBARBITAL AND 5,6-BENZOFLAVONE, Method: PREINCUBATION) was “inactive; negative”.
For `CN(C)c1ccc(N=Nc2cccc(CCl)c2)cc1`, the mutagenic call (Test System: AMES SALMONELLA TYPHIMURIUM, Strain/Indicator: TA98, Metabolic Activation: RAT, LIVER, S-9, POLYCHLORINATED BIPHENYLS, Method: PREINCUBATION) was “active; positive” and the mutagenic call (Test System: AMES SALMONELLA TYPHIMURIUM, Strain/Indicator: TA100, Metabolic Activation: RAT, LIVER, S-9, POLYCHLORINATED BIPHENYLS, Method: PREINCUBATION) was “active; positive”.
`C1CSCN1` was tested, and the mutagenic call [8] was “active; positive”.
With `O=C(c1ccccc1)C1OC1c1ccc(-c2ccccc2)cc1` (stereo not given) the mutagenic call [1] was “inactive; negative”, the mutagenic call [2] was “inactive; negative” and the mutagenic call [3] was “inactive; negative”. For the same compound, the mutagenic call [4] was “inactive; negative”.
`CC1(C)CC(C(N)=O)C(C)(C)N1[O]` (stereo not given) was tested, and the mutagenic call [3] was “inactive; negative”.
In the case of `O=[N+]([O-])c1ccc(NCCO)c(OCCO)c1`, the mutagenic call (Test System: AMES SALMONELLA TYPHIMURIUM, Strain/Indicator: TA98, Metabolic Activation: HAMSTER, LIVER, S-9, AROCLOR 1254 (10%), Method: PREINCUBATION) is reported as “active; positive”, the mutagenic call [7] is reported as “active; positive” and the mutagenic call (Test System: AMES SALMONELLA TYPHIMURIUM, Strain/Indicator: TA98, Metabolic Activation: RAT, LIVER, S-9, AROCLOR 1254 (10%), Method: PREINCUBATION) is reported as “active; positive”. For the same compound, the mutagenic call (Test System: AMES SALMONELLA TYPHIMURIUM, Strain/Indicator: TA100, Metabolic Activation: HAMSTER, LIVER, S-9, AROCLOR 1254 (10%), Method: PREINCUBATION) was “active; positive”, the mutagenic call [8] was “active; positive” and the mutagenic call (Test System: AMES SALMONELLA TYPHIMURIUM, Strain/Indicator: TA100, Metabolic Activation: RAT, LIVER, S-9, AROCLOR 1254 (10%), Method: PREINCUBATION) was “active; positive”. For the same compound, the mutagenic call (Test System: AMES SALMONELLA TYPHIMURIUM, Strain/Indicator: TA1535, Metabolic Activation: HAMSTER, LIVER, S-9, AROCLOR 1254 (10%), Method: PREINCUBATION) was “inactive; negative”, the mutagenic call (Test System: AMES SALMONELLA TYPHIMURIUM, Strain/Indicator: TA1535, Metabolic Activation: NONE, Method: PREINCUBATION) was “active; positive” and the mutagenic call (Test System: AMES SALMONELLA TYPHIMURIUM, Strain/Indicator: TA1535, Metabolic Activation: RAT, LIVER, S-9, AROCLOR 1254 (10%), Method: PREINCUBATION) was “inactive; negative”. For the same compound, the mutagenic call (Test System: AMES SALMONELLA TYPHIMURIUM, Strain/Indicator: TA1537, Metabolic Activation: HAMSTER, LIVER, S-9, AROCLOR 1254 (10%), Method: PREINCUBATION) was “active; positive”, the mutagenic call (Test System: AMES SALMONELLA TYPHIMURIUM, Strain/Indicator: TA1537, Metabolic Activation: NONE, Method: PREINCUBATION) was “active; positive” and the mutagenic call (Test System: AMES SALMONELLA TYPHIMURIUM, Strain/Indicator: TA1537, Metabolic Activation: RAT, LIVER, S-9, AROCLOR 1254 (10%), Method: PREINCUBATION) was “active; positive”.
With `C[C@H]1[C@H](O)CCC2=CC(=O)[C@]3([C@@]4(CO)CO4)O[C@@H]3[C@@]21C` the mutagenic call [3] was “active; positive” and the mutagenic call (Test System: E. COLI, Strain/Indicator: WP2 UVRA, Metabolic Activation: NONE, Method: STANDARD PLATE) was “active; positive”.
`NOS(=O)(=O)O` was tested, and the mutagenic call (Test System: AMES SALMONELLA TYPHIMURIUM, Strain/Indicator: G46, Metabolic Activation: RAT, LIVER, S-9, AROCLOR 1254, Method: STANDARD PLATE) was “active; positive” and the mutagenic call [4] was “inactive; negative”.

— PubChem BioAssay AID1259407 (Chemical Carcinogenesis Research Information System (CCRIS), 2018)
